# Measurements taken from patent publication US20230248762A1, “Method and composition for supporting normal blood calcium concentrations in mammals” (Contract Manufacturing Services, LLC, priority 2022, published 2023).
# Experiments:
# blood calcium = conditions: oral 50 g calcium; cited from earlier work
# [1] = tested on: plasma calcium concentration; assay: Plasma calcium after calving, herds without anionic diet (Example 5); format: in vivo, multiparous cows
# From the text: For examples 2 thru 5, statistical analysis consisted of repeated measures analysis of variance with cow nested within treatment and time after bolus administration as the repeated measure. Treatment plasma calcium means were compared at each time point using Tukey's test of comparison of means and differences are declared to be significant when the probability of the null hypothesis being correct is P<0.075.
# In Example 5, multiparous cows were utilized from several small farms that were not utilizing an anionic diet to reduce the incidence of hypocalcemia in the cows. Within a few hours of calving, cows were administered one of four treatments. Six cows were not treated with any bolus after calving (No Bolus). Four cows were treated with intravenous calcium (10.5 g calcium in the form of calcium gluconate) after calving (IV Ca). Twenty-two cows received 2 boluses after calving that contained calcium salts and Solanum glaucophyllum leaf, supplying 78 g calcium and 1,25-dihydroxyvitamin D3 glycoside equivalent to 196 ug 1,25-dihydroxyvitamin D3 (Ca+SG Bolus). Twenty-four cows were treated at calving and again 12-24 hrs. later with commercial oral calcium salt boluses that supplied 40-44 g calcium each for a total calcium dose of 80-88 g, primarily from calcium chloride (Ca Bolus).
Compound,calcium absorbed into the blood (blood calcium),duration of increase of blood calcium (blood calcium),increase of blood calcium (blood calcium),time to increase of blood calcium (blood calcium),effect on calcium homeostasis mechanisms of the cow ([1]; 10.5 g calcium intravenous),"plasma calcium concentration, rank among treatments ([1]; 24 to 84 hours after calving)",hypocalcemia versus no treatment ([1]; days 2 and 3 following lactation),"plasma calcium concentration, rank among treatments ([1]; four hours after calving)"
[Ca+2].[Cl-].[Cl-] [calcium chloride],about 4 g,6 to 8 h,approximately 1 mg/dl,≤ 1 h,,,,
calcium gluconate [Ca IV],,,,,inhibited the calcium homeostasis mechanisms,lowest plasma calcium concentration,more hypocalcemia,highest plasma calcium concentration
